Test results published in patent US20070105114A1, “Biomarkers of cyclin-dependent kinase modulation” (priority 2003, published 2007).
Where a name gives a salt, the structure may show the parent alone.

Columns and labels:
W28729 [1] = assay: W28729 expression by real-time quantitative PCR in cultured A2780 tumor cells; format: cell-based, human; settings: 20 nM
Experimental: Real-Time Quantitative PCR Assays: A Taqman® real-time-PCR fluorogenic assay (Applied Biosystems, Foster City, Calif., USA) was used to quantitate the levels of specific mRNA. The cdk2 inhibitor treated A2780s cells were harvested at approximately 70% confluence and total RNA was prepared using the Qiagen RNeasy 96 Kit.
Taqman® reactions were prepared as follows: 100 ng total RNA; 25 nM-750 nM Forward Primer; 25 nM-750 nM Reverse Primer; 200 nM-400 nM Taqman® Probe (fluorescent dye labeled oligonucleotide primer); 1X Buffer A (Applied Biosystems, Foster City, Calif., USA); 5.5 mM MgCl2; 300 μM DATP, dGTP, dTTP, dCTP; 1 U Amplitaq Gold; 20 U Superscript 2; 1 U RNase Inhibitor. Real-time PCR was performed using an Applied Biosystems 7700 Sequence Detection System. […]
The Sequence Detection System generates a Ct (threshold cycle) value that is used to calculate a concentration for each input messenger RNA template. Messenger RNA levels for each gene or fragment thereof of interest were normalized to GAPDH message levels to compensate for variations in total RNA quantity in the input sample. […] Ct values for the gene or fragments thereof of interest and GAPDH were inserted into the δδCt equation: Relative Quantity of Nucleic Acid Template=2^δδCt=2^(δCta-δCtb)(δCta=Ct target−Ct GAPDH, δCtb=Ct reference−Ct GAPDH) which was used to calculate a normalized relative message level. […]

W28729 [2] = assay: W28729 expression by real-time quantitative PCR in PBMC treated in vitro; format: cell-based; settings: human PBMC in vitro, 10n-M, 4 hours
Experimental: Taqman® reactions were prepared as follows: 100 ng total RNA; 25 nM-750 nM Forward Primer; 25 nM-750 nM Reverse Primer; 200 nM-400 nM Taqman® Probe (fluorescent dye labeled oligonucleotide primer); 1X Buffer A (Applied Biosystems, Foster City, Calif., USA); 5.5 mM MgCl2; 300 μM DATP, dGTP, dTTP, dCTP; 1 U Amplitaq Gold; 20 U Superscript 2; 1 U RNase Inhibitor. Real-time PCR was performed using an Applied Biosystems 7700 Sequence Detection System. Conditions were as follows: 48° C. for 20 minutes (reverse transcription), 95° C. for 10 minutes (denaturation and activation of Amplitaq Gold), 40 cycles of PCR (95° C. for 15 seconds, 60° C. for 1 minutes).
The Sequence Detection System generates a Ct (threshold cycle) value that is used to calculate a concentration for each input messenger RNA template. Messenger RNA levels for each gene or fragment thereof of interest were normalized to GAPDH message levels to compensate for variations in total RNA quantity in the input sample. This was done by generating GAPDH Ct values for each cell line. Ct values for the gene or fragments thereof of interest and GAPDH were inserted into the δδCt equation: Relative Quantity of Nucleic Acid Template=2^δδCt=2^(δCta-δCtb)(δCta=Ct target−Ct GAPDH, δCtb=Ct reference−Ct GAPDH) which was used to calculate a normalized relative message level. […]

mouse ortholog of W28729 = assay: Mouse ortholog of W28729 expression in PBMC of tumor mice; format: in vivo; settings: PBMC isolated from the tumor mice, compared with tumors
Experimental: At the minimum efficacious dose (MED) of 18 mg/kg/day, the induction was sustained for more than 6 hours. In an infusion regimen using the minimum efficacious dose of 40 mg/kg, gene induction was sustained for at least 16 hours. […] Treatment with an efficacious regimen results in >2 fold induction of the sequence for 6 hours or longer. […] In addition, these observations support the use of PBMC as a surrogate tissue for monitoring changes in gene expression, that result from treatment with the cdk2 inhibitor.

A2780 xenografts = assay: Anti-tumor efficacy in A2780 xenografts (minimum efficacious dose); format: in vivo, mouse
Experimental: The human ovarian carcinoma xenograft A2780s were maintained in Balb/c nu/nu nude mice. Tumors were propagated as subcutaneous (sc) transplants using tumor fragments obtained from donor mice. For the cdk2 inhibitor treatment, tumors were allowed to grow to the pre-determined size window of approximately 100-200 mg (tumors outside the range were excluded) and animals were evenly distributed to various treatment and control groups (n=6). Treatment of each animal was based on individual body weight. The cdk2 inhibitor was first dissolved in a mixture of Cremophor®/ethanol (50:50). One hour prior to administration, the cdk2 inhibitor was diluted with water so that the dosing solutions contained the specified excipient composition, i.e., Cremophor®/ethanol/water (1:1:8, v/v). The volume of all compounds injected was 0.01 ml/gm of mice. The cdk2 inhibitor was administered as a bolus injection intraperitoneal at doses of 36 and 18 mg/kg. Tumor and plasma were sampled at the time points of 4, 7, and 24 hour post treatment. Plasma sample was frozen immediately at −80° C. for pharmacokinetic analysis, and tumor sample was preserved in RNAase free buffer for pharmacogenomic analysis. […] At the minimum efficacious dose (MED) of 18 mg/kg/day, the induction was sustained for more than 6 hours. […]

A2780s = assay: 72 hr XTT proliferation assay; format: cell-based; settings: Homo sapiens, 72 hr. XTT assay
Experimental: Treatment of A2780 and PBMC was carried out as described above. The doses of the cdk2 inhibitor were derived from an understanding of the kinetics of tumor cell growth inhibition by the cdk2 inhibitor as assessed by proliferation and clonogenic assays (Table 3). […] A minimal exposure of 8 hours was required for effective inhibition of colony formation. The values obtained from the 24 hour clonogenic assay were in good agreement with the 72 hour proliferation assay.

## CC(C)(C)c1cnc(CSc2cnc(NC(=O)C3CCNCC3)s2)o1 [cdk2 inhibitor, N-5-[[5-(1,1-Dimethylethyl)-2-oxazolyl]methyl]thio]-2-thiazolyl-4-piperidinecarboxamide, 0.5-L-tartaric acid salt]
W28729 [1]
  induction of W28729: induction of W28729 occurred
  time after treatment at which W28729 induction was detected: 1 h
W28729 [2]
  W28729 expression change: Upregulation of W28729 expression
Mouse ortholog of W28729
  induction of the mouse ortholog sequence in PBMC: strikingly similar pattern of induction
A2780 xenografts; bolus i.p.
  minimum efficacious dose (MED): 18 mg/kg/day
A2780 xenografts; infusion regimen
  minimum efficacious dose: 40 mg/kg
A2780s
  IC50: 95 nM
  IC90: 170 nM
